From US4173702A, “7-(5-Amino-5-carboxyvaler-amido)-3-(carbamoyloxymethyl)-7-methoxy-3-cep hem-4-carboxylic acid” (Eli Lilly and Company, priority 1970, dated 1979)
Where two headings read alike, the source gives them in different places.

What was measured:
Xanthomonas vesicatoria = test: field trial, bacterial spot control on tomato plants; type: in vivo
Procedure: (§1) A mixture of the monoammonium salt of A16886I and the monoammonium salt of A16886II was tested under field conditions for the control of Xanthomonas vesicatoria (bacterial spot) on mature bearing tomato plants. The mixture of the two salts was dispersed in water at a concentration of 100, 200, or 400 parts per million and applied to the plants at the rate of 75 gallons per acre. Application was made with a CO2 sprayer at 50 psi. Plants were sprayed twice, on successive days; after the second spray had dried, all plants were wounded by sand blasting and then within one minute the plants were inoculated with a bacterial inoculum of Xanthomonas vesicatoria. Three days later, a third spray application of the aqueous formulation of A16886 was made. Readings were made one week and two weeks after the last spray treatment. Controls consisted of groups of plants (1) sand blasted and inoculated; (2) sand blasted only; (3) untreated; and (4) treated with streptomycin (on the same three-day spraying schedule, at a concentration of 100, 200, or 400 parts per million of aqueous solution, using a rate of 75 gallons per acre), sand blasted, and inoculated. The results were as set forth in the following table, in which crop injury is reported on a scale of 0-10, with 0=no injury and 10=dead plants; and control of bacterial spot is reported on a percentage basis.

tomato plants = test: field trial, crop injury; type: in vivo; details: 0=no injury, 10=dead plants
Procedure: as §1

Pseudomonas solanacearum = type: in vivo; details: 0 no control, 4 complete control
[1] = system: Ascaris lumbricoides var. suum; test: medicated feed, mice infected with Ascaris ova, lung lesions; type: in vivo; details: Example 13, mice, 0.05 percent in diet; control 2.66
Source text: The feeds were utilized as diets for separate groups of mice, five mice per group. Above twelve hours after initiation of the feeding, the mice were infected with Ascaris lumbricoides var. suum ova. Another group of five mice were fed the non-medicated feed to serve as a control but was similarly infected at the same time with Ascaris lumbricoides var. suum. All groups were fed their respective feed and maintained under normal laboratory conditions for a period of eight days, at which time all mice were taken off feed. On the ninth day, all mice were sacrificed and the lungs examined to determine the presence, and if present, numbers, of lesions of Ascaris lumbricoides var. suum.
Another evaluation was conducted under the procedures reported in Example 11, except that the rates were varied. The results were as follows:
In a further evaluation, the monoammonium salts of A16886I and A16886II were separately evaluated for the control of Ascaris lumbricoides var. suum. The evaluations were conducted in accordance with the procedure reported in Example 11 at a concentration in the diet of 0.05 percent.

solubility = type: physicochemical
[2] = in acetonitrile and other organic solvents

SMILES: [H]/N=C(/N)N[C@H]1[C@H](O)[C@@H](O)[C@H](O[C@@H]2O[C@@H](C)[C@](O)(C=O)[C@H]2O[C@@H]2O[C@@H](CO)[C@H](O)[C@@H](O)[C@@H]2NC)[C@@H](N/C(N)=N\[H])[C@@H]1O [Streptomycin]
- Percent Bacterial Spot Control (Xanthomonas vesicatoria; 100 ppm, First Reading): 83%
- Percent Bacterial Spot Control (Xanthomonas vesicatoria; 100 ppm, Second Reading): 57%
- Percent Bacterial Spot Control (Xanthomonas vesicatoria; 200 ppm, First Reading): 81%
- Percent Bacterial Spot Control (Xanthomonas vesicatoria; 200 ppm, Second Reading): 37%
- Percent Bacterial Spot Control (Xanthomonas vesicatoria; 400 ppm, First Reading): 83%
- Percent Bacterial Spot Control (Xanthomonas vesicatoria; 400 ppm, Second Reading): 59%
- Crop Injury Ratings (tomato plants; 100 ppm, First Reading): 0
- Crop Injury Ratings (tomato plants; 100 ppm, Second Reading): 0
- Crop Injury Ratings (tomato plants; 200 ppm, First Reading): 0
- Crop Injury Ratings (tomato plants; 200 ppm, Second Reading): 0
- Crop Injury Ratings (tomato plants; 400 ppm, First Reading): 0
- Crop Injury Ratings (tomato plants; 400 ppm, Second Reading): 0

SMILES: NC(=O)OCC1=C(C(=O)O)N2C(=O)C(NC(=O)CCCC(N)C(=O)O)[C@H]2SC1 (stereo partly drawn) [A16886II, 7-(5-amino-5-carboxyvaleramido)-3-(carbamoyloxymethyl)-3-cephem-4-carboxylic acid]
- Disease Rating (Pseudomonas solanacearum; Example 7, 10 ppm.): 1
- Disease Rating (Pseudomonas solanacearum; Example 7, 100 ppm.): 4
- Average Number of Lung Lesions Per Group [1]: 0.20
- solubility (solubility; [2]): essentially insoluble
- solubility (solubility; in lower alkanols): slightly soluble
- solubility (solubility; in water): very soluble

SMILES: COC1(NC(=O)CCCC(N)C(=O)O)C(=O)N2C(C(=O)O)=C(COC(N)=O)CS[C@@H]21 (stereo partly drawn) [A16886I, 7-(5-amino-5-carboxyvaleramido)-3-(carbamoyloxymethyl)-7-methoxy-3-cephem-4-carboxylic acid]
- Disease Rating (Pseudomonas solanacearum; Example 7, 10 ppm.): 2
- Disease Rating (Pseudomonas solanacearum; Example 7, 100 ppm.): 4
- rating (Pseudomonas solanacearum; Example 8, 100 ppm.): 4
- rating (Pseudomonas solanacearum; Example 8, 200 ppm.): 4
- rating (Pseudomonas solanacearum; Example 8, 400 ppm.): 4
- Average Number of Lung Lesions Per Group [1]: 0.46
- solubility (solubility; [2]): essentially insoluble
- solubility (solubility; in lower alkanols): slightly soluble
- solubility (solubility; in water): very soluble
